Measurements taken from patent US11998539B2, “Substituted aminoquinolones as DGKalpha inhibitors for immune activation” (Bayer Aktiengesellschaft, priority 2019, dated 2024).

Target: DGKα (Homo sapiens (Human), UniProt P23743)
Experiment: Human DGKα kinase activity inhibition assay (ADP-Glo)
Type: biochemical
Conditions: recombinant full-length human DGKα, 55 μM ATP, 7 μM 1,2-dioleoyl-sn-glycerol, read-out: IC50 values of examples in in vitro human DGKa kinase activity inhibition assays
Summary of the method: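 Activity was measured as ADP production, detected by luciferase luminescence after removal of unused ATP. The enzyme was baculovirus-expressed full-length human DGKα with a C-terminal FLAG tag. The substrate was 1,2-dioleoyl-sn-glycerol in detergent micelles, and compounds came from 100× DMSO solutions.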

Sequence of DGKα (P23743 other isoform, or with tags, fused parts or gaps): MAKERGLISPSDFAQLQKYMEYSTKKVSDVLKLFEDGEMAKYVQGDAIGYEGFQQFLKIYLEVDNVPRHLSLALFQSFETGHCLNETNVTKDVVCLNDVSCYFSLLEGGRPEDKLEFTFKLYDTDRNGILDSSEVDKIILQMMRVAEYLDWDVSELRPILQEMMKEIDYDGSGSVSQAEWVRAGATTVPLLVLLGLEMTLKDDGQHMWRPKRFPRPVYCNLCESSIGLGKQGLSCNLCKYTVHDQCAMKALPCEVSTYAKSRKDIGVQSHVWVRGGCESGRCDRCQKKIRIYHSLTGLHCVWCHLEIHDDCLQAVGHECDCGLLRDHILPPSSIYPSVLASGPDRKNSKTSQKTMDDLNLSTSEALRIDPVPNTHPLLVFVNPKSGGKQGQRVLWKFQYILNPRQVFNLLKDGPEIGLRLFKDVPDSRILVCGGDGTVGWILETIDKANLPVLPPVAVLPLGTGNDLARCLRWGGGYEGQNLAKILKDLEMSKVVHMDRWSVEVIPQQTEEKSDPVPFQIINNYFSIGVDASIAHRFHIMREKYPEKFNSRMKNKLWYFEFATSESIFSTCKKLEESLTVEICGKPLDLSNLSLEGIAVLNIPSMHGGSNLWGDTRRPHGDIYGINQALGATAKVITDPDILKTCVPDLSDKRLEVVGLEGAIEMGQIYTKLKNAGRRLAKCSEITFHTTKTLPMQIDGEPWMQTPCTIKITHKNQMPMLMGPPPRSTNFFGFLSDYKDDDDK

Row | SMILES | IC50
1 | Cc1ccc2c(c1)c(N1CCC(c3nc4cc(C(C)C)ccc4o3)CC1)c(C#N)c(=O)n2C [Example 186, 1,6-dimethyl-2-oxo-4-{4-[5-(propan-2-yl)-1,3-benzoxazol-2-yl]piperidin-1-yl}-1,2-dihydroquinoline-3-carbonitrile] | 9.1 nM
2 | Cc1ccc2oc(C3(C)CCN(c4c(C#N)c(=O)n(C)c5cc(C6CC6)ccc45)CC3)nc2c1 [Example 250, 7-cyclopropyl-1-methyl-4-[4-methyl-4-(5-methyl-1,3-benzoxazol-2-yl)piperidin-1-yl]-2-oxo-1,2-dihydroquinoline-3-carbonitrile] | 9.1 nM
3 | Cc1ccc2c(c1)c(N1CCC(c3nc4cc(Cl)ccc4o3)CC1)c(C(N)=O)c(=O)n2C [Example 201, 4-[4-(5-chloro-1,3-benzoxazol-2-yl)piperidin-1-yl]-1,6-dimethyl-2-oxo-1,2-dihydroquinoline-3-carboxamide] | 1.1 nM
4 | Cc1ccc2oc(C3(C)CCN(c4c(C#N)c(=O)n(C)c5ccc(OCC6(C#N)CC6)cc45)CC3)nc2c1 [Example 268, 6-[(1-cyanocyclopropyl)methoxy]-1-methyl-4-[4-methyl-4-(5-methyl-1,3-benzoxazol-2-yl)piperidin-1-yl]-2-oxo-1,2-dihydroquinoline-3-carbonitrile] | 65 nM
5 | Cn1ccc2cc(C3CCN(c4c(C#N)c(=O)n(C)c5ccccc45)CC3)ccc21 [Example 50, 1-methyl-4-[4-(1-methyl-1H-indol-5-yl)piperidin-1-yl]-2-oxo-1,2-dihydroquinoline-3-carbonitrile] | 8.3 nM
6 | Cc1ccc2oc(C3(C)CCN(c4c(C#N)c(=O)n(C)c5cc(OC6COC6)ccc45)CC3)nc2c1 [Example 241, 1-methyl-4-[4-methyl-4-(5-methyl-1,3-benzoxazol-2-yl)piperidin-1-yl]-7-[(oxetan-3-yl)oxy]-2-oxo-1,2-dihydroquinoline-3-carbonitrile] | 2.5 nM
7 | Cc1ccc2nc(C3(C)CCN(c4c(C(N)=O)c(=O)n(C)c5ccc(C)cc45)CC3)oc2c1 [Example 197, 1,6-dimethyl-4-[4-methyl-4-(6-methyl-1,3-benzoxazol-2-yl)piperidin-1-yl]-2-oxo-1,2-dihydroquinoline-3-carboxamide] | 2.2 nM
8 | Cc1ccc2oc(C3(C)CCN(c4c(C#N)c(=O)n(C)c5ccc(OC6COC6)cc45)CC3)nc2c1 [Example 267, 1-methyl-4-[4-methyl-4-(5-methyl-1,3-benzoxazol-2-yl)piperidin-1-yl]-6-[(oxetan-3-yl)oxy]-2-oxo-1,2-dihydroquinoline-3-carbonitrile] | 64 nM
9 | Cc1ccc2nc(C3CCN(c4c(C#N)c(=O)n(C)c5ccc(C)cc45)CC3)oc2c1 [Example 184, 1,6-dimethyl-4-[4-(6-methyl-1,3-benzoxazol-2-yl)piperidin-1-yl]-2-oxo-1,2-dihydroquinoline-3-carbonitrile] | 1.5 nM
10 | Cn1c(=O)c(C#N)c(N2CCC(c3ccc(C(F)(F)F)cc3)CC2)c2ccccc21 [Example 61, 1-methyl-2-oxo-4-{4-[4-(trifluoromethyl)phenyl]piperidin-1-yl}-1,2-dihydroquinoline-3-carbonitrile] | 37 nM
11 | Cn1c(=O)c(C#N)c(N2CCC(c3nc4ccccc4o3)CC2)c2cccc(Cl)c21 [Example 162, 4-[4-(1,3-benzoxazol-2-yl)piperidin-1-yl]-8-chloro-1-methyl-2-oxo-1,2-dihydroquinoline-3-carbonitrile] | 134 nM
12 | Cc1ccc2oc(C3CCN(c4c(C#N)c(=O)n(C)c5cc(OC6CCCOC6)ccc45)CC3)nc2c1 (centres unmarked) [Example 414, 1-methyl-4-[4-(5-methyl-1,3-benzoxazol-2-yl)piperidin-1-yl]-7-{[oxan-3-yl]oxy}-2-oxo-1,2-dihydroquinoline-3-carbonitrile] | 1.3 nM
13 | Cn1c(=O)c(C#N)c(N2CCC(C)(c3nc4ccc(OC(F)(F)F)cc4o3)CC2)c2ccccc21 [Example 20, 1-methyl-4-{4-methyl-4-[6-(trifluoromethoxy)-1,3-benzoxazol-2-yl]piperidin-1-yl}-2-oxo-1,2-dihydroquinoline-3-carbonitrile] | 1.5 nM
14 | Cc1ccccc1-c1nnc(C2CCN(c3c(C#N)c(=O)n(C)c4ccc(Br)cc34)CC2)o1 [Example 442, 6-bromo-1-methyl-4-{4-[5-(2-methylphenyl)-1,3,4-oxadiazol-2-yl]piperidin-1-yl}-2-oxo-1,2-dihydroquinoline-3-carbonitrile] | 15 nM
15 | Cn1c(=O)c(C(N)=O)c(N2CCC(c3ccc4c(c3)C3(CCC3)C(=O)N4)CC2)c2ccccc21 [Example 469, 1-methyl-2-oxo-4-[4-(2′-oxo-1′,2′-dihydrospiro[cyclobutane-1,3′-indol]-5′-yl)piperidin-1-yl]-1,2-dihydroquinoline-3-carboxamide] | 33 nM
16 | COc1ccc2oc(C3CCN(c4c(C#N)c(=O)n(C)c5ccccc45)CC3)nc2c1 [Example 386, 4-[4-(5-methoxy-1,3-benzoxazol-2-yl)piperidin-1-yl]-1-methyl-2-oxo-1,2-dihydroquinoline-3-carbonitrile] | 9.4 nM

Row | SMILES | IC50
17 | Cc1ccc2oc(C3CCN(c4c(C(N)=O)c(=O)n(C)c5cc(F)ccc45)CC3)nc2c1 [Example 304, 7-fluoro-1-methyl-4-[4-(5-methyl-1,3-benzoxazol-2-yl)piperidin-1-yl]-2-oxo-1,2-dihydroquinoline-3-carboxamide] | 2.1 nM
18 | Cc1ccc2oc(C3CCN(c4c(C(N)=O)c(=O)n(C)c5ccc(OCC(F)F)cc45)CC3)nc2c1 [Example 504, 6-(2,2-difluoroethoxy)-1-methyl-4-[4-(5-methyl-1,3-benzoxazol-2-yl)piperidin-1-yl]-2-oxo-1,2-dihydroquinoline-3-carboxamide] | 238 nM
19 | CCCOc1cccc2c(N3CCC(C)(c4nc5cc(C)ccc5o4)CC3)c(C#N)c(=O)n(C)c12 [Example 273, 1-methyl-4-[4-methyl-4-(5-methyl-1,3-benzoxazol-2-yl)piperidin-1-yl]-2-oxo-8-propoxy-1,2-dihydroquinoline-3-carbonitrile] | 119 nM
20 | CCCOc1ccc2c(N3CCC(C)(c4nc5cc(C)ccc5o4)CC3)c(C#N)c(=O)n(C)c2c1 [Example 257, 1-methyl-4-[4-methyl-4-(5-methyl-1,3-benzoxazol-2-yl)piperidin-1-yl]-2-oxo-7-propoxy-1,2-dihydroquinoline-3-carbonitrile] | 26 nM
21 | Cn1c(=O)c(C#N)c(N2CCC(c3cccc(N4CCOCC4)c3)CC2)c2ccccc21 [Example 63] | 39 nM
22 | COc1ccc2c(N3CCC(c4nc5cc(F)c(F)cc5o4)CC3)c(C#N)c(=O)n(C)c2c1 [Example 254, 4-[4-(5,6-difluoro-1,3-benzoxazol-2-yl)piperidin-1-yl]-7-methoxy-1-methyl-2-oxo-1,2-dihydroquinoline-3-carbonitrile] | 15 nM
23 | Cc1ccc2oc(C3(C)CCN(c4c(C#N)c(=O)n(C)c5c(C6COC6)cccc45)CC3)nc2c1 [Example 245, 1-methyl-4-[4-methyl-4-(5-methyl-1,3-benzoxazol-2-yl)piperidin-1-yl]-8-(oxetan-3-yl)-2-oxo-1,2-dihydroquinoline-3-carbonitrile] | 5.9 nM
24 | CC1Cc2cc(C3CCN(c4c(C(N)=O)c(=O)n(C)c5ccccc45)CC3)ccc2O1 (centres unmarked) [Example 466, 1-methyl-4-{4-[2-methyl-2,3-dihydro-1-benzofuran-5-yl]piperidin-1-yl}-2-oxo-1 2-dihydroquinoline-3-carboxamide] | 0.5 nM
25 | Cc1ccc2oc(C3(C)CCN(c4c(C#N)c(=O)n(C)c5c(C)cccc45)CC3)nc2c1 [Example 263, 1,8-dimethyl-4-[4-methyl-4-(5-methyl-1,3-benzoxazol-2-yl)piperidin-1-yl]-2-oxo-1,2-dihydroquinoline-3-carbonitrile] | 42 nM
26 | Cc1cccc(-c2noc(C3CCN(c4c(C(N)=O)c(=O)n(C)c5ccccc45)CC3)n2)c1 [Example 460, 1-methyl-4-{4-[3-(3-methylphenyl)-1,2,4-oxadiazol-5-yl]piperidin-1-yl}-2-oxo-1,2-dihydroquinoline-3-carboxamide] | 3.5 nM
27 | COc1ccc(C2CCN(c3c(C#N)c(=O)n(C)c4cc(N=S(C)(C)=O)ccc34)CC2)cc1 [Example 99, 7-{[dimethyl(oxo)-λ^6-sulfanylidene]amino}-4-[4-(4-methoxyphenyl)piperidin-1-yl]-1-methyl-2-oxo-1,2-dihydroquinoline-3-carbonitrile] | 64 nM
28 | COc1ccc2c(N3CCC(C)(c4nc5cc(C)ccc5o4)CC3)c(C#N)c(=O)n(C)c2c1 [Example 248, 7-methoxy-1-methyl-4-[4-methyl-4-(5-methyl-1,3-benzoxazol-2-yl)piperidin-1-yl]-2-oxo-1,2-dihydroquinoline-3-carbonitrile] | 6.9 nM
29 | Cn1c(=O)c(C#N)c(N2CCC(c3ccc4cc(C(F)F)cnc4c3)CC2)c2ccccc21 [Example 378, 4-{4-[3-(difluoromethyl)quinolin-7-yl]piperidin-1-yl}-1-methyl-2-oxo-1,2-dihydroquinoline-3-carbonitrile] | 23 nM
30 | Cn1c(=O)c(C#N)c(N2CCC(c3cccc(C(F)F)c3)CC2)c2ccccc21 [Example 87, 4-{4-[3-(difluoromethyl)phenyl]piperidin-1-yl}-1-methyl-2-oxo-1,2-dihydroquinoline-3-carbonitrile] | 7.1 nM
31 | Cc1ccc2oc(C3CCN(c4c(C(N)=O)c(=O)n(C)c5ccc(C(N)=O)cc45)CC3)nc2c1 [Example 499, 1-methyl-4-[4-(5-methyl-1,3-benzoxazol-2-yl)piperidin-1-yl]-2-oxo-1,2-dihydroquinoline-3,6-dicarboxamide] | 74 nM
32 | Cc1ccc2oc(C3CCN(c4c(C#N)c(=O)n(C)c5cc(P(C)(C)=O)ccc45)CC3)nc2c1 [Example 282, 7-(dimethylphosphoryl)-1-methyl-4-[4-(5-methyl-1,3-benzoxazol-2-yl)piperidin-1-yl]-2-oxo-1,2-dihydroquinoline-3-carbonitrile] | 872 nM
